According to publication PMC9963659, “Novel 2-Thiouracil-5-Sulfonamide Derivatives: Design, Synthesis, Molecular Docking, and Biological Evaluation as Antioxidants with 15-LOX Inhibition” (Molecules, 2023):
Values joined by “and” are separate entries in the source; they are usually repeats but may differ in a detail not shown here. Equal values may be shown once.

Key:
[1] = Lipid peroxidation assay (FeCl2/H2O2-stimulated linoleic acid peroxidation); format: biochemical; details: mean ± SEM of three experiments
[2] = DPPH radical scavenging assay; format: biochemical; details: mean ± SEM of three experiments
Protocol: The antioxidant potential of all target compounds (3–9) was determined using DPPH radical scavenging assay in comparison with ascorbic acid (AA) as the control treatment.
The mechanism of antioxidants as DPPH radical scavengers is based on their hydrogen-donation ability as hydrogen atoms or an electron transfer from the compound to the DPPH to form DPPH-H. The results of DPPH reduction are presented in Table 2, Figure 7.
The DPPH scavenging activity of all novel synthesized compounds (3–9) was measured as previously described (see Supplementary Materials).
1-Biological Evaluation Details: a-In-vitro Assays for biological antioxidant Activity
- DPPH scavenging method.
A 96-well plate was filled with 100 µL of the investigated compounds at various concentrations (12.5, 25, 50, 100, and 200 µg/mL ). The plate was then incubated at room temperature for 30 min while being protected from light by adding 100 µL of 100µM DPPH methanolic solution to each well. At a λ517 nm. the solution's absorbance was measured.
The positive control was ascorbic acid, and the negative control was DMSO. According to the following equation, the percentage of DPPH scavenging activity was determined:
% of DPPH scavenging = [(A control -A sample) / A control] x100. where A control is the absorbance of the control reaction (with all reagents except the test compound), and A sample is the absorbance of the test sample. Linear regression analysis was performed to calculate drug concentration showing 50% free radical inhibition activity (IC50). All tests were performed in triplicates. […]

[3] = Hydrogen peroxide scavenging assay; format: biochemical; details: mean ± SEM of three experiments
Protocol: H2O2 assay is used to estimate the scavenging power of the target compounds (4–9) to H2O2.
The hydrogen peroxide (H2O2) scavenging activity of all novel synthesized compounds 3–9 was measured as previously reported (see Supplementary Materials).
1-Biological Evaluation Details: a-In-vitro Assays for biological antioxidant Activity […]
Linear regression analysis was performed to calculate drug concentration showing 50% free radical inhibition activity (IC50). All tests were performed in triplicates.
-Scavenging of hydrogen peroxide
In this method, the decay or loss of hydrogen peroxide can be quantified spectrophotometrically at 230 nm when a scavenger is incubated with it. The procedure was applied with a few changes. In phosphate buffered saline, hydrogen […]
peroxide (20 mM) solution was prepared in phosphate buffered saline (PBS, pH 7.4). In order to make different concentrations of 1 ml of the tested substances (3–9) or standards in methanol, 2 ml of hydrogen peroxide solution in PBS was added. After 10 minutes, the absorbance of H2O2 was measured at 230 nm in comparison to an ascorbic acid (AA) reference solution that contained phosphate buffer but no H2O2.
% of H2O2 scavenging = [(A control -A sample) / A control] x100. […]

[4] = target: T1, Soybean 15-LOX enzyme (Glycine max, UniProt P08170); experiment: In vitro 15-lipoxygenase inhibition (Cayman Lipoxygenase Inhibitor Screening Assay Kit); format: biochemical; details: Soybean 15-LOX, arachidonic acid substrate; mean ± SEM of three experiments
T1 construct: purchased Cayman Chemical 760700
T1 sequence (P08170 1-839): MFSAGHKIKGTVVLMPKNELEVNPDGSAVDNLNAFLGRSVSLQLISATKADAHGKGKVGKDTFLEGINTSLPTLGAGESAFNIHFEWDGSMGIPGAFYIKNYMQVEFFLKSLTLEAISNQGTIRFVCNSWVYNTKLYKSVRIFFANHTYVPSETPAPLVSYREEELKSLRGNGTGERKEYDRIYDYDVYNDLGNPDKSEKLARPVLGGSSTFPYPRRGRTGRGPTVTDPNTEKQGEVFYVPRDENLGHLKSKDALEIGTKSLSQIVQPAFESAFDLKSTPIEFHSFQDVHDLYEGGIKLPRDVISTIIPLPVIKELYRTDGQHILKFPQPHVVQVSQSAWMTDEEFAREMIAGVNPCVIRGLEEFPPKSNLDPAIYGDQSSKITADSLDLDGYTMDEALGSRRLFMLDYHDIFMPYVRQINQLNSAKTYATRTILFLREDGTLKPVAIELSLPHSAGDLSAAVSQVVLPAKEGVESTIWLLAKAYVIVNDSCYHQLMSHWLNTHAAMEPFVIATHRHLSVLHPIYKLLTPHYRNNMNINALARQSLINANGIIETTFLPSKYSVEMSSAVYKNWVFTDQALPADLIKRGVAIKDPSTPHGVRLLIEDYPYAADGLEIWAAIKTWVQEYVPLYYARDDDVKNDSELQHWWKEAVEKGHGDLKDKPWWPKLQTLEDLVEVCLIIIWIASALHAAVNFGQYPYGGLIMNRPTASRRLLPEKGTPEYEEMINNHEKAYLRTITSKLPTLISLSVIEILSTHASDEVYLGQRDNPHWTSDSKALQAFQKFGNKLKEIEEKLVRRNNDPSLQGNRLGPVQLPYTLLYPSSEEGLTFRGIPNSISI
Protocol: 90 µL of 15-LOX was pipetted into a 96-well plate quickly. The test chemical was then dissolved in DMSO in 10 µL portions at concentrations of 2.5 µM, 5.0 µM, and 10 µM and added to each well. Arachidonic acid, a 110 µL substrate, was added to start the reaction, and the plate was shaken for at least five minutes. In order to interrupt enzyme catalysis and advance the reaction, 100 µL of chromogen was added to each well and made in accordance with the manufacturer’s instructions. In blank wells, 100 µL of assay buffer (0.1 M Tris-HCl, pH 7.4) was utilized. […] The solution’s absorbance was determined at λ 490–500 nm. The percentage inhibition was calculated according to the following equation:% inhibition = [(IA − Ainhibitor sample)/IA] × 100(1) where (IA) is the 100% initial activity and (Ainhibitor sample) is the absorbance of the test sample. A dose-response curve was plotted between % inhibition and the drug concentration. The non-linear dose-response curve was used for calculating drug concentration showing 50% enzyme inhibition.

Row | SMILES | Lipid Peroxidation IC50 [1] [µg/mL] | melting point [°C] | DPPH IC50 [2] | H2O2 IC50 [3] [µg/mL] | IC50 [4] [µM]
1 | CNC(=S)NN=C(C)c1cccc(NS(=O)(=O)c2c[nH]c(=S)[nH]c2=O)c1 [Compound 5a, N-{3-[(1E)-N-(methylcarbamothionyl)ethanhydrazonoyl]phenyl}-4-oxo-2-thioxo-1,2,3,4-tetrahydropyrimidine-5-sulfonamide] | 90.0 ± 1.45 | 305 to 307 | 14.50 ± 0.72 µg/mL | 41.0 ± 1.53 | 5.79 ± 0.01
2 | CCNC(=S)NN=C(C)c1cccc(NS(=O)(=O)c2c[nH]c(=S)[nH]c2=O)c1 [Compound 5b, N-{3-[(1E)-N-(ethylcarbamothionyl)ethanhydrazonoyl]phenyl}-4-oxo-2-thioxo-1,2,3,4-tetrahydropyrimidine-5-sulfonamide] | 85.0 ± 1.03 | 310 to 312 | 14.70 ± 0.22 µg/mL and 14.00 ± 0.22 µg/mL | 40.0 ± 1.32 | 5.7 ± 0.03
3 | CC(=NNC(=S)Nc1ccc(F)cc1)c1cccc(NS(=O)(=O)c2c[nH]c(=S)[nH]c2=O)c1 [Compound 5d, N-{3-[(1E)-N-(4-fluorocarbamothionyl)ethanhydrazonoyl]phenyl}-4-oxo-2-thioxo-1,2,3,4-tetrahydropyrimidine-5-sulfonamides] | 95.0 ± 1.42 | 313 to 315 | 14.72 ± 1.11 µg/mL | 47.0 ± 1.38 | 5.9 ± 0.06
4 | N#Cc1c(-c2cccc([N+](=O)[O-])c2)cc(-c2cccc(NS(=O)(=O)c3c[nH]c(=S)[nH]c3=O)c2)[nH]c1=O [Compound 6a, N-{3-[5-cyano-4-(3-nitrophenyl)-6-oxo-1,6-dihydropyridin-2-yl]phenyl}-4-oxo-2-thioxo-1,2,3,4-tetrahydropyrimidine-5-sulfonamide] | 45.0 ± 1.52 | 266 to 268 | 28.0 ± 1.06 µg/mL | 31.0 ± 1.30 | 7.85 ± 0.01
5 | N#Cc1c(-c2cccc(Cl)c2)cc(-c2cccc(NS(=O)(=O)c3c[nH]c(=S)[nH]c3=O)c2)[nH]c1=O [Compound 6b, N-{3-[5-cyano-4-(3-chlorophenyl)-6-oxo-1,6-dihydropyridin-2-yl]phenyl}-4-oxo-2-thioxo-1,2,3,4-tetrahydropyrimidine-5-sulfonamide] | 40.0 ± 1.63 | 272 to 274 | 22.0 ± 1.18 µg/mL | 30.0 ± 1.21 | 7.6 ± 0.05
6 | N#Cc1c(-c2cccc([N+](=O)[O-])c2)cc(-c2cccc(NS(=O)(=O)c3c[nH]c(=S)[nH]c3=O)c2)nc1N [Compound 7a, N-{3-[6-amino-5-cyano-4-(3-nitrophenyl)pyridine-2-yl]phenyl}-4-oxo-2-thioxo-1,2,3,4-tetrahydropyrimidine-5-sulfonamides] | 37.6 ± 1.2 | 251 to 253 | 25.5 ± 1.16 µg/mL | 26.0 ± 1.28 | 6.95 ± 0.07
7 | Cc1cccc(-c2cc(-c3cccc(NS(=O)(=O)c4c[nH]c(=S)[nH]c4=O)c3)nc(N)c2C#N)c1 [Compound 7d, N-{3-[6-amino-5-cyano-4-(3-methylphenyl)pyridine-2-yl]phenyl}-4-oxo-2-thioxo-1,2,3,4-tetrahydropyrimidine-5-sulfonamides] | 36.4 ± 1.33 | 264 to 266 | 17.0 ± 1.63 µg/mL | 23.9 ± 1.34 | 6.6 ± 0.05

Continued by falling IC50 [4], values first:

Row | Lipid Peroxidation IC50 [1] [µg/mL] | melting point [°C] | DPPH IC50 [2] | H2O2 IC50 [3] [µg/mL] | IC50 [4] [µM] | SMILES
8 | 39.0 ± 1.46 | 287 to 289 | 21.7 ± 0.7 µg/mL | 29.0 ± 1.03 | 7.8 ± 0.02 | N#Cc1c(-c2cccc(F)c2)cc(-c2cccc(NS(=O)(=O)c3c[nH]c(=S)[nH]c3=O)c2)[nH]c1=O [Compound 6c, N-{3-[5-cyano-4-(3-fluorophenyl)-6-oxo-1,6-dihydropyridin-2-yl]phenyl}-4-oxo-2-thioxo-1,2,3,4-tetrahydropyrimidine-5-sulfonamide]
9 | 38.0 ± 1.42 | 282 to 284 | 21.0 ± 0.5 µg/mL | 28.8 ± 1.05 | 7.5 ± 0.04 | Cc1cccc(-c2cc(-c3cccc(NS(=O)(=O)c4c[nH]c(=S)[nH]c4=O)c3)[nH]c(=O)c2C#N)c1 [Compound 6d, N-{3-[5-cyano-4-(3-methylphenyl)-6-oxo-1,6-dihydropyridin-2-yl]phenyl}-4-oxo-2-thioxo-1,2,3,4-tetrahydropyrimidine-5-sulfonamide]
10 | 36.9 ± 1.72 | 268 to 270 | 17.7 ± 1.4 µg/mL | 24.0 ± 1.40 | 6.91 ± 0.02 | N#Cc1c(-c2cccc(F)c2)cc(-c2cccc(NS(=O)(=O)c3c[nH]c(=S)[nH]c3=O)c2)nc1N [Compound 7c, N-{3-[6-amino-5-cyano-4-(3-fluorophenyl)pyridine-2-yl]phenyl}-4-oxo-2-thioxo-1,2,3,4-tetrahydropyrimidine-5-sulfonamides]
11 | 37.3 ± 1.3 | 257 to 259 | 19.50 ± 1.06 µg/mL | 25.0 ± 1.35 | 6.7 ± 0.01 | N#Cc1c(-c2cccc(Cl)c2)cc(-c2cccc(NS(=O)(=O)c3c[nH]c(=S)[nH]c3=O)c2)nc1N [Compound 7b, N-{3-[6-amino-5-cyano-4-(3-chlorophenyl)pyridine-2-yl]phenyl}-4-oxo-2-thioxo-1,2,3,4-tetrahydropyrimidine-5-sulfonamides]
12 | 82.0 ± 1.40 | 307 to 309 | 9.0 ± 1.10 µg/mL | 45.05 ± 1.34 | 5.5 ± 0.02 | COc1ccc(NC(=S)NN=C(C)c2cccc(NS(=O)(=O)c3c[nH]c(=S)[nH]c3=O)c2)cc1 [Compound 5c, N-{3-[(1E)-N-(4-methoxycarbamothionyl)ethanhydrazonoyl]phenyl}-4-oxo-2-thioxo-1,2,3,4-tetrahydropyrimidine-5-sulfonamides]
